# According to patent US11584709B2, “Multitarget drug for treating diseases in mammals” (“PHARMENTERPRISES EURASIA” LIMITED LIABILITY COMPANY, priority 2017, dated 2023):
# Experiments:
# [1] = test system: motility of the gastrointestinal tract; experiment: Model of irritable bowel syndrome: motility of the gastrointestinal tract (activated carbon); assay type: in vivo, nonlinear male mice
# Experimental: The effect on the motility of the gastrointestinal tract was studied on a model of irritable bowel syndrome in nonlinear male mice weighing 24-30 g. The animals were intragastrically injected with a solution of activated carbon (50 mg/ml, in a volume of 10 ml/kg) and the speed (in minutes) of the movement of activated coal through the intestines of animals. The compounds under study were intragastrically administered once 1 hour before the introduction of activated carbon. Drotaverine (6.7 mg/kg), Buscopan (3 mg/kg) and Trimedat (33 mg/kg) were used as reference drugs.
# [2] = test system: imiquimod-induced psoriasis on the back; experiment: Mouse model of imiquimod-induced psoriasis on the back; assay type: in vivo
# Experimental: Psoriasis was simulated in female balb/c mice by applying Aldar cream (5% imiquimod) on a previously shaved skin back area of 3×4 cm daily 1 time per day for 15 days (J Immunol. 2009 May 1; 182(9):5836-45). Intact animals were applied with vaseline: 120 mg per the shaved back area.
# The assessment of the development of pathology was performed on the 10th, 12th, 13th and 15th day before the next application of Aldar cream according to the index: the thickness of the skin fold on the back. The thickness of the skin fold on the back was measured with a Digimatic MK-25 micrometer (Mitutoyo, Japan).
# [3] = test system: imiquimod-induced ear psoriasis; experiment: Mouse model of imiquimod-induced ear psoriasis; assay type: in vivo, female balb/c mice; conditions: 0.05%, M ± m, n = 10
# Experimental: Psoriasis was simulated in female balb/c mice by applying Aldar cream (5% imiquimod) on the inner side of the right ear daily 1 time per day for 10 days (J Immunol. 2009 May 1; 182(9):5836-45). Vaseline was applied to intact animals: 20 mg on the right ear.
# The assessment of the development of pathology was performed on 2nd, 4th, 6th, 8th and 10th day before the next application of Aldar cream by measuring the thickness of the left and right ears.
# [4] = test system: diarrhea induced by castor oil; experiment: Mouse model of diarrhea induced by castor oil; assay type: in vivo, Balb/c mice; conditions: 1 mg/kg; M ± m, n = 10; observation 4 hours
# Experimental: Balb/c mice, which starved for 24 hours, were given castor oil intragastrically. Then the animals were encaged into individual cages with a bottom covered with white paper, and time before the onset of diarrhea was noted. The observation time is 4 hours (J Pharm Pharmacol. 2015 February; 67(2):244-54).
# indomethacin colitis = experiment: Model of colitis induced by indomethacin; assay type: in vivo, male Wistar rats; conditions: day 4
# Experimental: The study was performed on male Wistar rats, which were subcutaneously injected with an indomethacin solution in a dose of 9 mg/kg for two days running to induce colitis. The injection solution was prepared as follows: first, indomethacin was dissolved in 100% ethanol, then it was diluted in 5% NaHCO3 solution. On the 4th day after euthanasia, the stomach and intestine were removed from the animals in the CO2 chamber, then the caecum was excised, 10 cm from the ileum and large intestine was cut off, and 5 cm—from the caecum, to assess gross lesions (J Ethnopharmacol. 2004 February; 90(2-3): 195-204).
# model of Crohn's disease = experiment: Mouse model of Crohn's disease (TNBS); assay type: in vivo, male balb/c mice; conditions: for The portion of dead animals: TNBS, 7 days, 10 animals
# Experimental: The study was performed on male balb/c mice. Animals, which starved for 24 hours, were injected with 150 μl/mouse of TNBS solution in 50% ethanol into the rectal hole of the mouse to the depth of 4 cm using a 3.5 F catheter. Next, the mice were turned upside down and held for 60 seconds. 150 μl of the 50% ethanol solution was injected into the healthy control (intact animals). The study lasted 7 days. The development of pathology was assessed by the death of animals.
# [5] = inducer alone (control group), 9 mg/kg subcutaneously two days running
structure (smiles),measurement,setting,value
"CCCC[N+]1(C)[C@@H]2C[C@@H](OC(=O)[C@H](CO)c3ccccc3)C[C@H]1[C@@H]1O[C@@H]12 (some centres unmarked) [Buscopan, reference compound]",The evacuation speed of activated carbon,[1]; 3 mg/kg once intragastrically 1 hour before activated carbon,73.2 ± 2.87 min
"CCC(=O)O[C@]1(C(=O)CCl)[C@@H](C)C[C@H]2[C@@H]3CCC4=CC(=O)C=C[C@]4(C)[C@@]3(F)[C@@H](O)C[C@@]21C [Dermovate, clobetasol, reference compound]",The gain of the thickness of the back skin to the thickness before the start of the study,"[2]; 0.05%, day 10, M ± m, n = 10",−26.8%
same,toxic effect,"[2]; on the 12th day of the study, thinning the skin",total death of animals
same,The gain in the thickness of the right (affected) ear relatively day 0,[3]; day 2,18.9%
same,The gain in the thickness of the right (affected) ear relatively day 0,[3]; day 4,22.6%
same,The gain in the thickness of the right (affected) ear relatively day 0,[3]; day 6,24.6%
same,The gain in the thickness of the right (affected) ear relatively day 0,[3]; day 8,21.3%
same,The gain in the thickness of the right (affected) ear relatively day 0,[3]; day 10,16.5%
"CCOc1ccc(/C=C2\NCCc3cc(OCC)c(OCC)cc32)cc1OCC [Drotaverine, reference compound]",The evacuation speed of activated carbon,[1]; 6.7 mg/kg once intragastrically 1 hour before activated carbon,105.85 ± 2.39 min
same,The time of onset of diarrhea,[4],43.60 ± 2.61& min
COc1ccc2c(c1)c(CC(=O)O)c(C)n2C(=O)c1ccc(Cl)cc1 [Indomethacin],"Macroscopic assessment of the lesion, Caecum",indomethacin colitis; [5],1.2 ± 0.4 points
same,"Macroscopic assessment of the lesion, Ileum",indomethacin colitis; [5],5.6 ± 1.2 points
same,"Macroscopic assessment of the lesion, Large intestine",indomethacin colitis; [5],1.2 ± 0.3 points
same,"Macroscopic assessment of the lesion, Overall assessment",indomethacin colitis; [5],8.0 ± 1.3 points
"CN(C)C(=O)C(CCN1CCC(O)(c2ccc(Cl)cc2)CC1)(c1ccccc1)c1ccccc1 [Loperamide, reference compound]",The time of onset of diarrhea,[4],56.40 ± 5.14& min
C[C@]12C=CC(=O)C=C1CC[C@@H]1[C@@H]2[C@@H](O)C[C@@]2(C)[C@H]1CC[C@]2(O)C(=O)CO [Prednisolone],The portion of dead animals,"model of Crohn's disease; 5 mg/kg, 1 time per day",80%
same,The portion of dead animals,model of Crohn's disease; 10 mg/kg,60%
same,reduction of the mortality,model of Crohn's disease; summary of Table 4,20-40%
same,"Macroscopic assessment of the lesion, Caecum","indomethacin colitis; 2 mg/kg, M ± m, n = 10",0.3 ± 0.2& points
same,"Macroscopic assessment of the lesion, Ileum","indomethacin colitis; 2 mg/kg, M ± m, n = 10",0.6 ± 0.6& points
same,"Macroscopic assessment of the lesion, Large intestine","indomethacin colitis; 2 mg/kg, M ± m, n = 10",0.4 ± 0.2 points
same,"Macroscopic assessment of the lesion, Overall assessment","indomethacin colitis; 2 mg/kg, M ± m, n = 10",1.3 ± 0.9& points
"CCC(COC(=O)c1cc(OC)c(OC)c(OC)c1)(c1ccccc1)N(C)C.O=C(O)/C=C\C(=O)O (centres unmarked) [Trimedat, reference compound]",The evacuation speed of activated carbon,[1]; 33 mg/kg once intragastrically 1 hour before activated carbon,83.65 ± 2.42 min
